Measured values taken from patent publication US20130190314A1, “DERIVATIVES OF 6-CYCLOAMINO-2-THIENYL-3-(PYRIDIN-4-YL)IMIDAZO[1,2-b]-PYRIDAZINE AND 6-CYCLOAMINO-2-FURANYL-3-(PYRIDIN-4-YL)IMIDAZO[1,2-b]-PYRIDAZINE, PREPARATION AND THERAPEUTIC USE THEREOF” (priority 2008, published 2013).

Assays:
[1] = tested on: Mper1-luc Rat-1 (P2C4) fibroblasts; assay: Circadian cell assay: mPer1-promoter luciferase reporter, period prolongation; type: cell-based; settings: effective concentration that induced a 1-hour prolongation of the circadian period
Description: Mper1-luc Rat-1 (P2C4) fibroblast cultures were prepared by dividing the cultures every 3-4 days (approximately 10-20% of confluence) on 150 cm^2 degassed polystyrene tissue culture flasks (Falcon® #35-5001) and maintained in growth medium [EMEM (Cellgro #10-010-CV); 10% foetal bovine serum (FBS; Gibco #16000-044); and 50 I.U./ml of penicillin-streptomycin (Cellgro #30-001-CI)] at 37° C. and under 5% CO2.
Cells obtained from Rat-1 fibroblast cultures at 30-50% of confluence as described above were co-transfected with vectors containing the selectable marker for zeocin resistance for a stable transfection and a luciferase reporter gene controlled by the mPer-1 promoter. After 24 to 48 hours, the cultures were divided on 96-well plates and maintained in growth medium supplemented with 50-100 μg/ml of zeocin (Invitrogen® #45-0430) for 10-14 days. The zeocin-resistant stable transfectants were evaluated for the expression of the reporter gene by adding 100 μM luciferin (Promega® #E1603®) to the growth medium and by assaying the luciferase activity on a TopCount® scintillation counter (Packard Model #C384V00). The Rat-1 cell clones expressing both zeocin resistance and luciferase activity controlled by mPer1 were serum-shock synchronized with 50% horse serum [HS (Gibco® #16050-122)] and the activity of the circadian reporter was evaluated. The P2C4 clone of Mper1-luc Rat-1 fibroblasts was selected to test the compound.
Mper1-luc Rat-1 (P2C4) fibroblasts at 40-50% of confluence, obtained according to the protocol described above, were plated out onto 96-well opaque tissue culture plates (Perkin Elmer® #6005680). The cultures are maintained in growth medium supplemented with 100 μg/mL of zeocin (Invitrogen #45-0430) until they have reached 100% of confluence (48-72 h). The cultures were then synchronized with 100 μl of synchronization medium [EMEM (Cellgro #10-010-CV); 100 I.U./ml of penicillin-streptomycin (Cellgro #30-001-C1); HS at 50% (Gibco #16050-122)] for 2 hours at 37° C. and under 5% CO2. After synchronization, the cultures were rinsed with 100 μl of EMEM (Cellgro #10-010-CV) for 10 minutes at ambient temperature. After rinsing, the medium was replaced with 300 μl of CO2 independent medium [CO2I (Gibco #18045-088); 2 mM L-glutamine (Cellgro #25-005-C1); 100 I.U./ml of penicillin-streptomycin (Cellgro #30-001-C1); 100 μM luciferin (Promega #E 1603)]. […]
The period analysis was performed either by determining the interval between the relative light emission minima over several days or by Fourier transform. […] The data were analysed by adjusting a hyperbolic curve to the data expressed as change of period (Y-axis) as a function of the concentration of the test compound (X-axis) in the XLfit™ software, and the CE Delta (t+1 h) was interpolated from this curve.

| melting point | Structure (SMILES) | CE Delta (t + 1 h) [1] |
| --- | --- | --- |
| – | Cc1ccc(-c2nc3ccc(N4CCNCC4)nn3c2-c2ccncc2)s1 [Compound 10, 2-(5-methylthien-2-yl)-6-(piperazin-1-yl)-3-(pyridin-4-yl)imidazo[1,2-b]pyridazine] | 360 nM |
| 216 to 218 °C | OCCN1CCN(c2ccc3nc(-c4ccc(Cl)s4)c(-c4ccncc4)n3n2)CC1 [Compound 14, 2-{4-[2-(5-chlorothien-2-yl)-3-(pyridin-4-yl)imidazo[1,2-b]pyridazin-6-yl](piperazin-1-yl)}ethanol] | 60 to 117 nM |
